Read-outs that look alike come from different tables or passages of the source.
Columns and labels:
[1] = molecular target: T1, HIV reverse transcriptase (RNase H activity) (Human immunodeficiency virus type 1 group M subtype B, UniProt P04585); experiment: RNase H / HIV reverse transcriptase inhibition (fluorescent probe-target hybrid assay); assay type: biochemical; conditions: inhibition of HIV reverse transcriptase / RNase H, Table I
T1 construct: HIV reverse transcriptase has an RNase H domain at the C-terminus of its p66 subunit
Description: Preferably, the RNase H/HIV reverse transcriptase modulatory activity of the compounds of the present invention may be determined by the methods described in copending U.S. provisional patent Application No. 60/436,125, filed Dec. 19, 2003 and PCT Application Ser. No. WO 2004/059012, filed Dec. 22, 2003, published Jul. 15, 2004, entitled ASSAY FOR RNase ACTIVITY of Olsen et al., incorporated herein by reference in their entirety. Specifically, the modulatory activity of a carbamate derivative of the present invention may be determined by hybridizing a target nucleic acid to a fluorescently labeled oligonucleotide probe complementary to the target nucleic acid and containing a fluorophor at one terminus and a quenching group at the other terminus to obtain a probe-target hybrid, wherein (i) the unhybridized probe adopts a conformation that places the fluorophor and quencher in such proximity that the quencher quenches the fluorescent signal of the fluorophor, and (ii) the formation of the probe-target hybrid causes sufficient separation of the fluorophor and quencher to reduce quenching of the fluorescent signal of the fluorophor. Next, a first and second sample containing the probe-target hybrid are prepared. The probe-target hybrid of the first sample is then contacted with an RNase H enzyme (such as HIV reverse transcriptase) in an amount sufficient to selectively cleave the target nucleic acid and thereby release the intact probe. The probe-target hybrid of the second sample is also contacted with the RNase H enzyme in an amount sufficient to selectively cleave the target nucleic acid and thereby release the intact probe in the presence of a candidate carbamate derivative of the present invention. The release of the probe in each sample may then be detected by measuring the […] in the fluorescent signal of the fluorophor as compared to the signal of the probe-target hybrid. A comparison of the rate of the decrease in the fluorescent signal of the fluorophor in the two samples is made to determine whether there is a difference in the rate of the decrease in the two samples. […] This method is also useful to identify carbamate derivatives of the present invention, wherein candidate carbamate derivatives are screened for their ability to modulate RNase/HIV reverse transcriptase activity.

[2] = molecular target: T2, HIV Reverse transcriptase (RT) p66/p51, RDDP activity (Human immunodeficiency virus type 1 group M subtype B, UniProt P04585); experiment: RNA dependent DNA polymerase (RDDP) activity of HIV RT, 33P TTP incorporation with polyrA-oligodT12-18; assay type: biochemical
T2 construct: […]; purchased Worthington

HIV-1 infection = conditions: cited from earlier work

Molecule: 2-[(2,4-dimethylphenyl)amino]-2-oxoethyl dibenzyl(phenyl)dithiocarbamate [Example 8]
- IC50 [1]: 41.5 µM
- IC50 ([2]; inhibition of polymerase (RDDP) activity of HIV reverse transcriptase, Table II, read-out: IC50): > 80 µM

Molecule: Cc1cn([C@H]2C[C@H](N=[N+]=[N-])[C@@H](CO)O2)c(=O)[nH]c1=O [AZT, zidovudine, reference compound]
- IC50 [2]: < 0.2 µM

Molecule: Cc1ccc(NC(=O)CSC(=S)N(Cc2ccccc2)Cc2ccccc2)c(C)c1 [Example 1, 2-[(2,4-dimethylphenyl)amino]-2-oxoethyl dibenzyldithiocarbamate]
- IC50 [1]: 3.1 µM
- IC50 [2]: 30 µM

Molecule: O=C(CSC(=S)N(Cc1ccccc1)Cc1ccccc1)Nc1ccc(Cl)c(Cl)c1Cl [Example 2, 2-oxo-2-[(2,3,4-trichlorophenyl)amino]ethyl dibenzyldithiocarbamate]
- IC50 [1]: 3.3 µM
- IC50 [2]: > 80 µM

Molecule: N#Cc1cccc(NC(=O)CSC(=S)N(Cc2ccccc2)Cc2ccccc2)c1 [Example 3, 2-[(3-cyanophenyl)amino]-2-oxoethyl dibenzyldithiocarbamate]
- IC50 [1]: 4.7 µM
- IC50 [2]: > 80 µM

Molecule: O=C(CSC(=S)N(Cc1ccccc1)Cc1ccccc1)Nc1ccc(Cl)cc1Cl [Example 4, 2-[(2,4-dichlorophenyl)amino]-2-oxoethyl dibenzyldithiocarbamate]
- IC50 [1]: 5.8 µM
- IC50 [2]: > 160 µM

Molecule: COc1ccc(C)cc1NC(=O)CSC(=S)N(Cc1ccccc1)c1ccccc1 [Example 5, 2-[(2-methoxy-5-methylphenyl)amino]-2-oxoethyl benzyl(phenyl)dithiocarbamate]
- IC50 [1]: 8.3 µM
- IC50 [2]: > 80 µM

Molecule: N#Cc1cccc(NC(=O)CSC(=S)N(Cc2ccccc2)c2ccccc2)c1 [Example 6, 2-[(3-cyanophenyl)amino]-2-oxoethyl benzyl(phenyl)dithiocarbamate]
- IC50 [1]: 11.4 µM
- IC50 [2]: > 80 µM

Molecule: O=C(CSC(=S)N(Cc1ccccc1)c1ccccc1)Nc1ccc(Cl)c(Cl)c1Cl [Example 7, 2-oxo-2-[(2,3,4,-trichlorophenyl)amino]ethyl benzylphenyl dithiocarbamate]
- IC50 [1]: 26.6 µM
- IC50 [2]: > 80 µM

Molecule: COc1ccc(C)cc1NC(=O)CSC(=S)N(Cc1ccccc1)Cc1ccccc1 [Example 9]
- IC50 [1]: 46.2 µM
- IC50 [2]: > 80 µM

Molecule: CCN(CC)C(=S)S [diethyldicarbamate]
- patients who died during eighteen-month follow up (HIV-1 infection; 3 placebo patients had died from AIDS): none
- patients with AIDS at the end of the study (HIV-1 infection; HIV-1 patients Walter Reed stages 2-4, 24 weeks treatment, 6 of the placebo patients had AIDS): no patient
- disease progression (HIV-1 infection; HIV-1 patients, group that received the drug vs placebo): Significantly delayed disease progression
